One may read the AC50 as the concentration giving half of the maximal activity seen. Read a low AC50 as greater potency.

This passage reports AC50 results from ChEMBL document CHEMBL5291721, “A preclinical secondary pharmacology resource illuminates target-adverse drug reaction associations of marketed drugs” (Nat Commun, 2023).

SMILES strings stand for the structures.

For experiment [1], the target named is Synaptic vesicular amine transporter (Rattus norvegicus, UniProt Q01827). The experiment is classed as functional.
Chain of Synaptic vesicular amine transporter (Q01827 whole entry): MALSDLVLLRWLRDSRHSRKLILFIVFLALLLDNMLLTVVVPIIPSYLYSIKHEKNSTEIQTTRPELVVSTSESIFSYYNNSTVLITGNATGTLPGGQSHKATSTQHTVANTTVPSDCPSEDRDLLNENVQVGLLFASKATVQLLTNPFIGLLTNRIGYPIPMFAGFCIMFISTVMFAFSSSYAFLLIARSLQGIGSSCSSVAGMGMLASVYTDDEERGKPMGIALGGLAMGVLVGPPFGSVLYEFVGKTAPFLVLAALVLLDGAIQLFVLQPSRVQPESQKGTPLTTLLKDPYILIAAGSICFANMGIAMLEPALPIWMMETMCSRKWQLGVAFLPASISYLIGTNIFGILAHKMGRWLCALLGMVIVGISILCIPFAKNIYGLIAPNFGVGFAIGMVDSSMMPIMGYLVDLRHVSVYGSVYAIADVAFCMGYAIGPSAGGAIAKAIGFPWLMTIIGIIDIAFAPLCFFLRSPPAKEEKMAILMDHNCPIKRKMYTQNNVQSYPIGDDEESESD
Experiment [2] concerns the target Hydroxycarboxylic acid receptor 2 (Homo sapiens, UniProt Q8TDS4).
Experiment [3] deals with Gamma-aminobutyric acid type B receptor subunit 1 (Homo sapiens, UniProt Q9UBS5).
Chain of Gamma-aminobutyric acid type B receptor subunit 1 (Q9UBS5 whole entry): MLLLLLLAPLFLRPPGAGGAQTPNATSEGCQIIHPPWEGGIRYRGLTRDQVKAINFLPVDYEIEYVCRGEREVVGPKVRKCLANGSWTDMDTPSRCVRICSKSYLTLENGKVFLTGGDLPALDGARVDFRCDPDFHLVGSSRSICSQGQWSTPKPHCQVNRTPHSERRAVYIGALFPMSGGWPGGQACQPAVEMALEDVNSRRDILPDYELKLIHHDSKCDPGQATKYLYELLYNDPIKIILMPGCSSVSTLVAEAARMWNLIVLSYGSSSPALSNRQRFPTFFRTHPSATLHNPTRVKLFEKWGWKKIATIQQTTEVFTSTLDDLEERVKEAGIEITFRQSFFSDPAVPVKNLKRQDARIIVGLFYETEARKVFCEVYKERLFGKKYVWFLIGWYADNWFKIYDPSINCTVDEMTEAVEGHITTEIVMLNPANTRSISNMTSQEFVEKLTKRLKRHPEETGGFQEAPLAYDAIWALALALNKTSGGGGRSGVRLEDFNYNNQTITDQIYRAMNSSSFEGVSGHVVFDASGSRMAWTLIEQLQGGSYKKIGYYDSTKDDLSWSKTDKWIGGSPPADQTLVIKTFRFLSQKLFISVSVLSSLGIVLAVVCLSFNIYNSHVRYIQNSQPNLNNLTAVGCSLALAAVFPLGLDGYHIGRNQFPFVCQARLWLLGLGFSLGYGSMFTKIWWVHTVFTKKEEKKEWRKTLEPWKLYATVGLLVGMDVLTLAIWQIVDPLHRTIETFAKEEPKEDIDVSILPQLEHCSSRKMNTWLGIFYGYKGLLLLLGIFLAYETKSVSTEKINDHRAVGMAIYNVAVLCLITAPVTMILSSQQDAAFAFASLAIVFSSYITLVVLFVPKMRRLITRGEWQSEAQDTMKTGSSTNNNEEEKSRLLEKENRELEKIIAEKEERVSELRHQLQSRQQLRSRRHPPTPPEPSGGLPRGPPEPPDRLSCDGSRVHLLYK
The target in experiment [4] is T1, Muscarinic acetylcholine receptor M5 (Homo sapiens, UniProt P08912).
T1 sequence (P08912 whole entry): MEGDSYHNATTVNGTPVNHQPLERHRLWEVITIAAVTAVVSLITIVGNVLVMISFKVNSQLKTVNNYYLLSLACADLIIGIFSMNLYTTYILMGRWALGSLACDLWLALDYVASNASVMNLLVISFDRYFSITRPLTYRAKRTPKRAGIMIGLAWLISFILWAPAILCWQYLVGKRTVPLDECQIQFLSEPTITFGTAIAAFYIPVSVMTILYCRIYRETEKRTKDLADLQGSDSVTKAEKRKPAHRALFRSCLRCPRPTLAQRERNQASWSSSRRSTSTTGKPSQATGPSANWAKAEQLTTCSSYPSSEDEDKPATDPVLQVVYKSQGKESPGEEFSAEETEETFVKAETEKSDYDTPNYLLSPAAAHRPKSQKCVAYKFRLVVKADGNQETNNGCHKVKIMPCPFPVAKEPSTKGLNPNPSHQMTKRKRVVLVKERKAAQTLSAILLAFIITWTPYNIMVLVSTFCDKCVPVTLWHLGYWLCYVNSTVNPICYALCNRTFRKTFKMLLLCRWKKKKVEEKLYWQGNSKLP

The target in a further experiment is Cannabinoid receptor 1 (Homo sapiens, UniProt P21554). The experiment is classed as functional.
Chain of Cannabinoid receptor 1 (P21554 whole entry): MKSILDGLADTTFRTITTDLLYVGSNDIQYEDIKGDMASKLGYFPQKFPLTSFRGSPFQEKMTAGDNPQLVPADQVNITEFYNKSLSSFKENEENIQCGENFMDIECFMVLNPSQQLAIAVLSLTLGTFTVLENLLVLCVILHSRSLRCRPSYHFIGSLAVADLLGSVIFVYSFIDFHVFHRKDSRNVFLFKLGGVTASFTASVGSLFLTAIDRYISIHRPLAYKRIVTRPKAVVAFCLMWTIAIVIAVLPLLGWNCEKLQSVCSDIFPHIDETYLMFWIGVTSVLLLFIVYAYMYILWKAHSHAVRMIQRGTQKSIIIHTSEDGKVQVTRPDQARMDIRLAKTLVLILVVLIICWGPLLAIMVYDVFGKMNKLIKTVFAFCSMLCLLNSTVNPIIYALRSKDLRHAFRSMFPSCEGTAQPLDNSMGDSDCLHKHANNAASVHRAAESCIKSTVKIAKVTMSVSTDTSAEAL
The next experiment has as its target D(1A) dopamine receptor (Homo sapiens, UniProt P21728). The experiment is classed as functional, cell-based.
The target in experiment [5] is T2, Glucocorticoid receptor (Homo sapiens, UniProt P04150).
T2 sequence (P04150 whole entry): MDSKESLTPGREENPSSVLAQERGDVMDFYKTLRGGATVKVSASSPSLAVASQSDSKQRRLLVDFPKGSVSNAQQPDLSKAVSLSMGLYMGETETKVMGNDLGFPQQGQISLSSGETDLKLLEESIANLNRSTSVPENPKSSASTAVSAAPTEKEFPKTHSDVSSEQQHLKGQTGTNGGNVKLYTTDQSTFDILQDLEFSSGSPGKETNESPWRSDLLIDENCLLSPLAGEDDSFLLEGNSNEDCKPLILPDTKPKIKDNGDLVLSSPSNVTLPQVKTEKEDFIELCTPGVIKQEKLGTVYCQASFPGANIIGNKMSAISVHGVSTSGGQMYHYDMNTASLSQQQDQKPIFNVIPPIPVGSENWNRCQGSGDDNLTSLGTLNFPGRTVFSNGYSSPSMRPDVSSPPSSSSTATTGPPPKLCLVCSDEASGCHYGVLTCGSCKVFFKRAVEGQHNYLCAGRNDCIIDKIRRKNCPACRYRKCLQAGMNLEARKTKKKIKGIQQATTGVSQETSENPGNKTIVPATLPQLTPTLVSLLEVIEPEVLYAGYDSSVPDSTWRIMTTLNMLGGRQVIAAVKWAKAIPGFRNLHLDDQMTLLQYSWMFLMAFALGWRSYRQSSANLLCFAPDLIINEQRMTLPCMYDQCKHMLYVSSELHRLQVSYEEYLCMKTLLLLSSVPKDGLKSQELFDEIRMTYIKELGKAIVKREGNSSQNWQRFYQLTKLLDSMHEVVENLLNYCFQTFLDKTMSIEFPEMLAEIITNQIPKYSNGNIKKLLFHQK
The experiment is classed as functional.

Experiment [6] deals with T2, Glucocorticoid receptor. The experiment is classed as functional. This is another data set of the same source.
In a further experiment the target is T3, Estrogen receptor (Homo sapiens, UniProt P03372).
T3 sequence (P03372 whole entry): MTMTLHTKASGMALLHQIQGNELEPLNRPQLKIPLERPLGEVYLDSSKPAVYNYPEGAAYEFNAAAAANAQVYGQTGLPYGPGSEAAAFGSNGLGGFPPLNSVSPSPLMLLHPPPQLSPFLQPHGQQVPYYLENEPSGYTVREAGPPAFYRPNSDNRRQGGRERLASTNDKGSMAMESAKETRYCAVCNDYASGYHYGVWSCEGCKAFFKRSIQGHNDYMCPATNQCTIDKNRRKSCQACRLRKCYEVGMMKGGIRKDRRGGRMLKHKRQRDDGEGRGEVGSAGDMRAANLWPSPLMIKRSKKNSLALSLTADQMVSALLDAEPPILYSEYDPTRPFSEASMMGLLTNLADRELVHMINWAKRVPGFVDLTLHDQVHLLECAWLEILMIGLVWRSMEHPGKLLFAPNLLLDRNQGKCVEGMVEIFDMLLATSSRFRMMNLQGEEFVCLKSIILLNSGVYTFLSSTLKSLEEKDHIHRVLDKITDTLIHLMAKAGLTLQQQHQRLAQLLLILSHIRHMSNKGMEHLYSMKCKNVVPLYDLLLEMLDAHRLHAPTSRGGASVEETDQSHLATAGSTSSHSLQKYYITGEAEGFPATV
The experiment is classed as functional.
Also: assay procedure not described here.

Chain of D(1A) dopamine receptor (P21728 whole entry): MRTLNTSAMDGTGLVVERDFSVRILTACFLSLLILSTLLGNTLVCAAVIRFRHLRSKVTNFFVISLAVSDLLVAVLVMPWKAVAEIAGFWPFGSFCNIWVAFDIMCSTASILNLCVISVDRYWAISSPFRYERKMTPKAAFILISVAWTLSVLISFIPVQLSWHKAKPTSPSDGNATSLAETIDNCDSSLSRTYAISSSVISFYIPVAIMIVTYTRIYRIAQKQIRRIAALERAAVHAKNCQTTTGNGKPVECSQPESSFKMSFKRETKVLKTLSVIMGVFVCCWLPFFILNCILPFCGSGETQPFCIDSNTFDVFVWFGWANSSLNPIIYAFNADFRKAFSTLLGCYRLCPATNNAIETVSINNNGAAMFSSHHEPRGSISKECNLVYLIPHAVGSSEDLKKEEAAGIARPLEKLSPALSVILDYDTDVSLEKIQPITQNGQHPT
Chain of Hydroxycarboxylic acid receptor 2 (Q8TDS4 whole entry): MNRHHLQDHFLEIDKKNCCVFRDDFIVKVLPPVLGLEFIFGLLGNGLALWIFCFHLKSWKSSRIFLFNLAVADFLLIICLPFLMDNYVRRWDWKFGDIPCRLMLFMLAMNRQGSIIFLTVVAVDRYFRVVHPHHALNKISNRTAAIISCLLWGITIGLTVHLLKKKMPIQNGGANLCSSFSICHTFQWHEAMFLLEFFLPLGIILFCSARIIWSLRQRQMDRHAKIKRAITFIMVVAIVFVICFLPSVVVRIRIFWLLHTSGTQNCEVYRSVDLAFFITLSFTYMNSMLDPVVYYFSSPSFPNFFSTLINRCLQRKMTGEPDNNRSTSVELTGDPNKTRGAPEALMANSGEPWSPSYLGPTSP

Regarding `OC[C@H]1O[C@@H](c2ccc(Cl)c(Cc3ccc(O[C@H]4CCOC4)cc3)c2)[C@H](O)[C@@H](O)[C@@H]1O` [EMPAGLIFLOZIN], half-maximal activity in [1] (AC50) was put at 16 µM.
As to `Cc1onc(-c2ccccc2)c1-c1ccc(S(N)(=O)=O)cc1` [VALDECOXIB], the concentration at half-maximal activity (AC50) (in experiment [2]; in experiment [3]; in experiment [4]; at Cannabinoid receptor 1) was more than 10 µM throughout.
On to `CN(C)CCc1c[nH]c2ccc(Cn3cncn3)cc12` [RIZATRIPTAN], for which the AC50 (in [3]; in experiment [4]; at Cannabinoid receptor 1) was more than 10 µM in each case.
`Nc1ccc(S(=O)(=O)Nc2nccs2)cc1` [SULFATHIAZOLE] gave an AC50 in [2] of more than 10 µM.
With `COc1cc2nccc(Oc3ccc(NC(=O)C4(C(=O)Nc5ccc(F)cc5)CC4)cc3)c2cc1OC` [CABOZANTINIB], the half-maximal activity concentration (AC50) was 13 µM at D(1A) dopamine receptor, more than 30 µM at Glucocorticoid receptor [5], more than 30 µM on Glucocorticoid receptor [6] and more than 30 µM on Estrogen receptor.
`N[C@@H](CC(=O)N1CCn2c(nnc2C(F)(F)F)C1)Cc1cc(F)c(F)cc1F` [SITAGLIPTIN]: the AC50 on Glucocorticoid receptor [5] is more than 30 µM; in experiment [3], more than 10 µM; on Glucocorticoid receptor [6], more than 30 µM; in [4] it was more than 10 µM; at Cannabinoid receptor 1, more than 10 µM; on Estrogen receptor, more than 30 µM.
On to `CCN(CC)CCNC(=O)c1c(C)[nH]c(/C=C2\C(=O)Nc3ccc(F)cc32)c1C` [SUNITINIB], for which the concentration at half-maximal activity (AC50) at Glucocorticoid receptor [6] is more than 10 µM.
For the molecule `COc1ccccc1Oc1c(NS(=O)(=O)c2ccc(C(C)(C)C)cc2)nc(-c2ncccn2)nc1OCCO` [BOSENTAN], the half-maximal activity concentration (AC50) is more than 30 µM on Glucocorticoid receptor [5], more than 10 µM in experiment [3] and more than 30 µM at Glucocorticoid receptor [6].
Consider `CC(C(=O)O)c1ccc2c(c1)[nH]c1ccc(Cl)cc12` (stereo unspecified) [CARPROFEN], for which the AC50 at Glucocorticoid receptor [5] and on Glucocorticoid receptor [6] was more than 30 µM in each case.
Molecule `CC(C)C[C@H](NC(=O)CNC(=O)c1cc(Cl)ccc1Cl)B(O)O` [IXAZOMIB] had a concentration at half-maximal activity (AC50) in experiment [1] of more than 30 µM.
In turn, `C[C@H]1c2cccc(O)c2C(=O)C2=C(O)[C@]3(O)C(=O)C(C(N)=O)=C(O)[C@@H](N(C)C)[C@@H]3[C@@H](O)[C@@H]21` [DOXYCYCLINE] yielded an AC50 in [2] of more than 10 µM.
Consider `CCN1CCN(Cc2ccc(Nc3ncc(F)c(-c4cc(F)c5nc(C)n(C(C)C)c5c4)n3)nc2)CC1` [ABEMACICLIB], for which the AC50 on D(1A) dopamine receptor, at Glucocorticoid receptor [5], at Glucocorticoid receptor [6] and on Estrogen receptor was more than 30 µM throughout.
For `CC(C)Cc1ccc(C(C)C(=O)O)cc1` (stereo unspecified) [IBUPROFEN], the half-maximal activity concentration (AC50) at Glucocorticoid receptor [5] was more than 30 µM; in experiment [3], more than 10 µM; on Glucocorticoid receptor [6] it was more than 30 µM; in experiment [4] it was more than 10 µM; on Cannabinoid receptor 1 it was more than 10 µM.
Regarding `COc1ccccc1OCCNCC(O)COc1cccc2[nH]c3ccccc3c12` (stereo unspecified) [CARVEDILOL], the concentration at half-maximal activity (AC50) (in experiment [3]; in [4]; at Cannabinoid receptor 1) was more than 10 µM in each case.
`CCCN(CCC)C(=O)Cc1c(-c2ccc(Cl)cc2)nc2ccc(Cl)cn12` [ALPIDEM]: the concentration at half-maximal activity (AC50) (in experiment [3]; in experiment [4]; at Cannabinoid receptor 1) was more than 10 µM in each case.
Take `CCCC(CCC)C(=O)O` [VALPROIC ACID]: the half-maximal activity concentration (AC50) (in experiment [3]; in experiment [4]; on Cannabinoid receptor 1) was more than 10 µM throughout.
Turning to `C[C@H](CCC(=O)O)[C@H]1CC[C@H]2[C@@H]3[C@@H](O)C[C@@H]4C[C@H](O)CC[C@]4(C)[C@H]3CC[C@]12C` [URSODIOL], the AC50 at D(1A) dopamine receptor and at Estrogen receptor was more than 30 µM each time.
In turn, `CC(C)(O)CNc1nc(Nc2ccnc(C(F)(F)F)c2)nc(-c2cccc(C(F)(F)F)n2)n1` [ENASIDENIB] registered an AC50 in experiment [1] of 1.8 µM.
Turning to `CC(C)c1nc(N(C)S(C)(=O)=O)nc(-c2ccc(F)cc2)c1/C=C/[C@@H](O)C[C@@H](O)CC(=O)O` [ROSUVASTATIN], the AC50 on Glucocorticoid receptor [5], on Glucocorticoid receptor [6] and on Estrogen receptor was more than 30 µM throughout.
As for `C=CC[C@@H]1/C=C(\C)C[C@H](C)C[C@H](OC)[C@H]2O[C@@](O)(C(=O)C(=O)N3CCCC[C@H]3C(=O)O[C@H](/C(C)=C/[C@@H]3CC[C@@H](O)[C@H](OC)C3)[C@H](C)[C@@H](O)CC1=O)[C@H](C)C[C@@H]2OC` [TACROLIMUS ANHYDROUS], the concentration at half-maximal activity (AC50) at D(1A) dopamine receptor is more than 30 µM; on Glucocorticoid receptor [5], more than 30 µM; in experiment [3], more than 10 µM; on Glucocorticoid receptor [6], more than 30 µM; in [4], more than 10 µM; at Cannabinoid receptor 1, more than 10 µM. On Estrogen receptor, the AC50 is more than 30 µM.
In turn, `CO[C@H]1/C=C/O[C@@]2(C)Oc3c(C)c(O)c4c(O)c(c(/C=N/N5CCN(C)CC5)c(O)c4c3C2=O)NC(=O)/C(C)=C\C=C\[C@H](C)[C@H](O)[C@@H](C)[C@@H](O)[C@@H](C)[C@H](OC(C)=O)[C@@H]1C` [RIFAMPIN] returned an AC50 at Cannabinoid receptor 1 of more than 10 µM.
On to `CN1C[C@H](C(=O)N[C@]2(C)O[C@@]3(O)[C@@H]4CCCN4C(=O)[C@H](Cc4ccccc4)N3C2=O)C=C2c3cccc4[nH]cc(c34)C[C@H]21` [ERGOTAMINE], for which the half-maximal activity concentration (AC50) on Glucocorticoid receptor [5], on Glucocorticoid receptor [6] and on Estrogen receptor was more than 30 µM each time.
`C[C@@H](Oc1cc(-c2cnn(C3CCNCC3)c2)cnc1N)c1c(Cl)ccc(F)c1Cl` [CRIZOTINIB]: the half-maximal activity concentration (AC50) on D(1A) dopamine receptor, at Glucocorticoid receptor [5], on Glucocorticoid receptor [6] and at Estrogen receptor was more than 30 µM in each case.
